Test results as given in patent US11578061B2, “Inhibitors of LRRK2 kinase” (Halia Therapeutics, Inc., priority 2021, dated 2023).

Molecular target: recombinant human LRRK2 (catalytic domain only [amino acids 970-2527], GST-tagged) (Homo sapiens (Human), UniProt Q5S007)
Experiment: LRRK2 Enzymatic Assay
Assay type: biochemical
Settings: LRRKtide substrate, [32P]-ATP
Outline: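 GST-tagged catalytic domain (aa 970-2527) at 30 nM with 20 μM LRRKtide in HEPES pH 7.5/MgCl2 buffer, 1% DMSO; compounds (10 μM to 0.5 nM) preincubated 20 min, then [32P]-ATP added for 2 h at room temperature. P81 phosphocellulose capture; activity as % of vehicle, IC50 by curve fit.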

recombinant human LRRK2 (catalytic domain only [amino acids 970-2527], GST-tagged), sequence (Q5S007 970-2527): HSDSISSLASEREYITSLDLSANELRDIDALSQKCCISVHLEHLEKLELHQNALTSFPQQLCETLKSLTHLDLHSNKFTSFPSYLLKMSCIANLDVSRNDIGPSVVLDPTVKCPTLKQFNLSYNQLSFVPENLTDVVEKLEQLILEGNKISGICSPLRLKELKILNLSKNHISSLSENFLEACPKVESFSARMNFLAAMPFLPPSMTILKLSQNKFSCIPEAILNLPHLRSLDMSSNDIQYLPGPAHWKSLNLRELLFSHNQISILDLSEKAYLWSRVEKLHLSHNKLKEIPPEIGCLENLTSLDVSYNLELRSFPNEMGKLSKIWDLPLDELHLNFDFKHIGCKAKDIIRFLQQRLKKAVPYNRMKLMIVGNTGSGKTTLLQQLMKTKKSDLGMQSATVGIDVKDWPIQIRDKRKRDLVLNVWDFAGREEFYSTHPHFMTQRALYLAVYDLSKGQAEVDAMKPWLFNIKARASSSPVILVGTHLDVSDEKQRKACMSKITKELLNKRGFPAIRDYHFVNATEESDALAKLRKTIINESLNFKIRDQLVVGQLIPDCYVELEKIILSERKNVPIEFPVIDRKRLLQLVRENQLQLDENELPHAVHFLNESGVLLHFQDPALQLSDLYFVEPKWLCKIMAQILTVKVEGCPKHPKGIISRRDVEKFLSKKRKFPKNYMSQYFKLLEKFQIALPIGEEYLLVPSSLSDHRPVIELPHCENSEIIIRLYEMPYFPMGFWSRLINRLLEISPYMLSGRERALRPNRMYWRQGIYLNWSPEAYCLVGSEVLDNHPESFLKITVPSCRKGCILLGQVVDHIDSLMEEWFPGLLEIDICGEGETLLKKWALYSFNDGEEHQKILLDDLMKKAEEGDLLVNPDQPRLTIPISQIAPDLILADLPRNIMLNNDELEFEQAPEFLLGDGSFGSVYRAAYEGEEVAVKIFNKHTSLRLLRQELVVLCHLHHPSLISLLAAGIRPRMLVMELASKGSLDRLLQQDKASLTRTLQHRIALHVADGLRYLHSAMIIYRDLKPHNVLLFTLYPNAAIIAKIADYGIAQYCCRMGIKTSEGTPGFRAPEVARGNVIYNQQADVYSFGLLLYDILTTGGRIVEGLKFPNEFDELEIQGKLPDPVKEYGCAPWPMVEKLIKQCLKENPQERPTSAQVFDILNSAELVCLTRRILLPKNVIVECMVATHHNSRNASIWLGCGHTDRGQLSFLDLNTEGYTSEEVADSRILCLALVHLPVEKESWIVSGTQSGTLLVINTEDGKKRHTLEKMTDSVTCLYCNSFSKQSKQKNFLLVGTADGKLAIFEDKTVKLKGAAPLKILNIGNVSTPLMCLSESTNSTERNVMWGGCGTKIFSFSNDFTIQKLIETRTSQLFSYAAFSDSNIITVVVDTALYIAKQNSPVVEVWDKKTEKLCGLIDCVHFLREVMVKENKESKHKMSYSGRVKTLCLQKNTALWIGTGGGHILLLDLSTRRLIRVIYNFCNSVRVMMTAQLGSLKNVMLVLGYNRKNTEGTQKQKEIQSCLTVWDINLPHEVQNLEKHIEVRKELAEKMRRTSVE

| SMILES | IC50 |
| --- | --- |
| CC(=O)N[C@H]1CC[C@H](COc2ccnc(Nc3cnn(C(C)C)c3)n2)CC1 [Example 76, N-((1R,4R)-4-(((2-((1-isopropyl-1H-pyrazol-4-yl)amino)pyrimidin-4-yl)oxy)methyl)cyclo-hexyl)acetamide] | 50 to 200 nM |
| CC(=O)NC12CCC(COc3ccnc(Nc4ccc(N5CCOCC5)cc4)n3)(CC1)CC2 [Example 77, N-(4-(((2-((4-morpholinophenyl)amino)pyrimidin-4-yl)oxy)methyl)bicyclo [2.2.2]octan-1-yl)acetamide] | > 400 nM |
| CC(=O)NC12CCC(COc3ccnc(Nc4cn(C(C)(C)C#N)nc4C)n3)(CC1)CC2 [Example 78, N-(4-(((2-((1-(2-cyanopropan-2-yl)-3-methyl-1H-pyrazol-4-yl)amino)pyrimidin-4-yl)oxy)methyl)bicyclo [2.2.2]octan-1-yl)acetamide] | 200 to 400 nM |
| CC(=O)NC12C3C4C1C1C2C3C41COc1ccnc(Nc2ccc(N3C[C@@H](C)O[C@@H](C)C3)cc2)n1 (stereo partly drawn) [Example 79, N-(4-(((2-((4-((2S,6R)-2,6-dimethylmorpholino)phenyl)amino)py-rimidin-4-yl)oxy)methyl)cuban-1-yl)acetamide] | 200 to 400 nM |
| CC(=O)N[C@H]1CC[C@H](COc2nc(Nc3ccc(N4CCOCC4)cc3)ncc2Cl)CC1 [Example 80, N-((1R,4R)-4-(((5-chloro-2-((4-morpholinophenyl)amino)pyrimidin-4-yl)oxy)methyl)cyclo-hexyl)acetamide] | < 50 nM |
| CC(=O)N[C@H]1CC[C@H](COc2nc(Nc3cn(C(C)(C)C#N)nc3C)ncc2Cl)CC1 [Example 81, N-((1R,4R)-4-(((5-chloro-2-((1-(2-cyanopropan-2-yl)-3-methyl-1H-pyrazol-4-yl)amino)pyrimidin-4-yl)oxy)methyl)cyclo-hexyl)acetamide] | < 50 nM |
| CC(=O)N[C@H]1CC[C@H](COc2nc(Nc3ccc(N4CCOCC4)cc3)ncc2F)CC1 [Example 82, N-((1R,4R)-4-(((5-fluoro-2-((4-morpholinophenyl)amino)pyrimidin-4-yl)oxy)methyl)cyclo-hexyl)acetamide] | < 50 nM |
| CC(=O)N[C@H]1CC[C@H](COc2nc(Nc3ccc(N4C[C@@H](C)O[C@@H](C)C4)cc3)ncc2F)CC1 [Example 83] | < 50 nM |
| CC(=O)N[C@H]1CC[C@H](COc2nc(Nc3cn(C(C)(C)C#N)nc3C)ncc2F)CC1 [Example 84, N-((1R,4R)-4-(((2-((1-(2-cyanopropan-2-yl)-3-methyl-1H-pyrazol-4-yl)amino)-5-fluoropyrimidin-4-yl)oxy)methyl)cyclo-hexyl)acetamide] | < 50 nM |
| CC(=O)NC1CCCC(COc2nc(Nc3ccc(N4CCOCC4)cc3)ncc2F)CC1 (stereo not shown) [Example 85, N-(4-(((5-fluoro-2-((4-morpholinophenyl)amino)pyrimidin-4-yl)oxy)methyl)cyclo-heptyl)acetamide] | < 50 nM |
| CC(=O)N[C@H]1CC[C@H](COc2nc(Nc3cn(C(C)(C)C#N)nc3C)ncc2C)CC1 [Example 87, N-((1R,4R)-4-(((2-((1-(2-cyanopropan-2-yl)-3-methyl-1H-pyrazol-4-yl)amino)-5-methylpyrimidin-4-yl)oxy)methyl)cyclo-hexyl)acetamide] | < 50 nM |
| CC(=O)N[C@H]1CC[C@H](COc2nc(Nc3ccc(N4CCOCC4)cc3)ncc2C2CC2)CC1 [Example 88, N-((1R,4R)-4-(((5-cyclopropyl-2-((4-morpholinophenyl)amino)pyrimidin-4-yl)oxy)methyl)cyclo-hexyl)acetamide] | 50 to 200 nM |
| CC(=O)N[C@H]1CC[C@@H](COc2ccnc(Nc3ccc(N4CCOCC4)cc3)n2)C1 [Example 89, N-((1S,3R)-3-(((2-((4-morpholinophenyl)amino)pyrimidin-4-yl)oxy)methyl)cyclo-pentyl)acetamide] | > 400 nM |
| CC(=O)NC1CCC(C)(COc2ccnc(Nc3ccc(N4C[C@@H](C)O[C@@H](C)C4)cc3)n2)CC1 (stereo partly drawn) [Example 90, N-(4-(((2-((4-((2S,6R)-2,6-dimethylmorpholino)phenyl)amino)py-rimidin-4-yl)oxy)methyl)-4-methylcyclohexyl) acetamide] | > 400 nM |
| CC(=O)NC1CCC(C)(COc2ccnc(Nc3ccc(N4CCOCC4)cc3)n2)CC1 (stereo not shown) [Example 91, N-(4-methyl-4-(((2-((4-morpholinophenyl)amino)pyrimidin-4-yl)oxy)methyl)cyclo-hexyl)acetamide] | > 400 nM |
| CC(=O)N[C@H]1C[C@H](COc2nc(Nc3ccc(N4CCOCC4)cc3)ncc2F)C1 [Example 92, N-((1R,3R)-3-(((5-fluoro-2-((4-morpholinophenyl)amino)pyrimidin-4-yl)oxy)methyl)cyclo-butyl)acetamide] | 200 to 400 nM |
| CC(=O)NC1CCCC(COc2nc(Nc3ccc(N4C[C@@H](C)O[C@@H](C)C4)cc3)ncc2F)CC1 (stereo partly drawn) [Example 93, N-(4-(((2-((4-((2S,6R)-2,6-dimethylmorpholino)phenyl)amino)-5-fluoropyrimidin-4-yl)oxy)methyl)cyclo-heptyl)acetamide] | < 50 nM |
| CC(=O)N[C@H]1C[C@H](COc2ccnc(Nc3ccc(N4CCOCC4)cc3)n2)C1 [Example 94, N-((1R,3R)-3-(((2-((4-morpholinophenyl)amino)pyrimidin-4-yl)oxy)methyl)cyclo-butyl)acetamide] | > 400 nM |
| CC(=O)N1CCC(COc2nc(Nc3ccc(N4CCOCC4)cc3)ncc2Cl)C(F)(F)C1 (stereo not shown) [Example 95, 1-(4-(((5-chloro-2-((4-morpholinophenyl)amino)pyrimidin-4-yl)oxy)methyl)-3,3-difluoropiperidin-1-yl)ethan-1-one] | < 50 nM |
| CC(=O)N1CCC(COc2nc(Nc3cn(C(C)(C)C#N)nc3C)ncc2Cl)C(F)(F)C1 (stereo not shown) [Example 96, 2-(4-((4-((1-acetyl-3,3-difluoropiperidin-4-yl)methoxy)-5-chloropyrimidin-2-yl)amino)-3-methyl-1H-pyrazol-1-yl)-2-methylpropanenitrile] | < 50 nM |
| CC(=O)N1CC2(CC(COc3nc(Nc4ccc(N5C[C@@H](C)O[C@@H](C)C5)cc4)ncc3F)C2)C1 [Example 97] | > 400 nM |
| O=C(N[C@H]1CC[C@H](COc2ccnc(Nc3ccc(N4CCOCC4)cc3)n2)CC1)C(F)(F)F [Example 98, 2,2,2-trifluoro-N-((1R,4R)-4-(((2-((4-morpholino-phenyl)amino)pyrimidin-4-yl)oxy)methyl)cyclohexyl) acetamide] | 50 to 200 nM |
| O=C(N[C@H]1CC[C@H](COc2nc(Nc3ccc(N4CCOCC4)cc3)ncc2F)CC1)C(F)(F)F [Example 99, 2,2,2-trifluoro-N-((1R,4R)-4-(((5-fluoro-2-((4-morpholino-phenyl)amino)pyrimidin-4-yl)oxy)methyl)cyclohexyl) acetamide] | < 50 nM |
| Cc1nn(C(C)(C)C#N)cc1Nc1ncc(Cl)c(OC[C@H]2CC[C@H](NC(=O)C(F)F)CC2)n1 [Example 100, N-((1R,4R)-4-(((5-chloro-2-((1-(2-cyano-propan-2-yl)-3-methyl-1H-pyrazol-4-yl)amino)pyrimidin-4-yl)oxy)methyl)cyclohexyl)-2,2-difluoro-acetamide] | < 50 nM |
| O=C(N[C@H]1CC[C@H](COc2nc(Nc3cccc(N4CCOCC4)c3)ncc2Cl)CC1)C(F)F [Example 101, N-((1R,4R)-4-(((5-chloro-2-((3-morpholino-phenyl)amino)pyrimidin-4-yl)oxy)methyl)cyclohexyl)-2,2-difluoro-acetamide] | < 50 nM |
